Calls of active or inactive are those of the source.
Key:
Caspase-6 = target: T1, Caspase-6 (Homo sapiens, UniProt P55212); assay: inhibition of CASP6 peptide cleavage – biochemical, VEID-R110 fluorescence, cherry-pick, dose response (AID 720632)
T1 sequence (P55212 whole entry): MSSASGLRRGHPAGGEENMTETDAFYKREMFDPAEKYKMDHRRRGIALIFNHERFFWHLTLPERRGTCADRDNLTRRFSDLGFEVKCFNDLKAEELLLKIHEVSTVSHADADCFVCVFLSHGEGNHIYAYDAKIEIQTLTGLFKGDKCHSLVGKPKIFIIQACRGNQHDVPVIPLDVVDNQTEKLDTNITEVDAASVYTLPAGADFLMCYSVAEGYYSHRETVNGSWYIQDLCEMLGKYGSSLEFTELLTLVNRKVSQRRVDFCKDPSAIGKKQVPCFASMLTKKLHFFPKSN

[1] = P. falciparum Dd2 growth inhibitors, dose response, SYBR Green, cherry-picked samples (AID 1159567); assay type: functional, cell-based
[2] = toxicity to human hepatoma HepG2 cells – cell-based, cherry-picked samples, cytotoxicity control, dose response (AID 1159577); assay type: functional
Cytochrome P450 3A4 = Cytochrome P450 3A4 (Homo sapiens, UniProt P08684); conditions: Potency;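 further: confirmatory qHTS run detecting inhibitors and substrates of CYP3A4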
Leucine aminopeptidase = target: T2, Leucine aminopeptidase (Plasmodium falciparum 3D7, UniProt Q8IL11); assay: P. falciparum M17LAP inhibitors, primary screen, biochemical, fluorogenic H-Leu-NHMec substrate, 1536-well (AID 1619); assay type: functional
T2 sequence (Q8IL11 whole entry): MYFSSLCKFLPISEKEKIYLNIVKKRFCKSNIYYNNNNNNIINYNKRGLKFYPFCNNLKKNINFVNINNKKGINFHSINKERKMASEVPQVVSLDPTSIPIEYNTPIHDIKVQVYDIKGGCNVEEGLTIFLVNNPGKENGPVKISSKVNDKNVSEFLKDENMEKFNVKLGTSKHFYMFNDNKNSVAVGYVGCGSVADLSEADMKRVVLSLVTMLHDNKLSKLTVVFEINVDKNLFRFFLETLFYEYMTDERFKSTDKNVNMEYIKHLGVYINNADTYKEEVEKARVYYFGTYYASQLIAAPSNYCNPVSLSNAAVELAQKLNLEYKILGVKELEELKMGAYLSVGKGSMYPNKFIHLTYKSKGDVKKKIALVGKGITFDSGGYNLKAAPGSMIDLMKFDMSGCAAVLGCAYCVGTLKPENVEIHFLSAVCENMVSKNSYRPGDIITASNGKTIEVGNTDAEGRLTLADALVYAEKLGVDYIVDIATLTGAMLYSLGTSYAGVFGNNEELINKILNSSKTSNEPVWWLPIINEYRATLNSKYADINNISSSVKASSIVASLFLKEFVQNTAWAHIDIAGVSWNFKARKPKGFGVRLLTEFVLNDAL

[3] = target: Glyceraldehyde-3-phosphate dehydrogenase (Homo sapiens, UniProt P04406)
Aminopeptidase N = target: T3, Aminopeptidase N (Plasmodium falciparum FcB1/Columbia, UniProt O96935); assay: malaria alanyl aminopeptidase activity blockers – biochemical, fluorogenic H-Leu-NHMec substrate, 1536-well (AID 1445); design: species or system Plasmodium falciparum 3D7, 3D7
T3 sequence (O96935 whole entry): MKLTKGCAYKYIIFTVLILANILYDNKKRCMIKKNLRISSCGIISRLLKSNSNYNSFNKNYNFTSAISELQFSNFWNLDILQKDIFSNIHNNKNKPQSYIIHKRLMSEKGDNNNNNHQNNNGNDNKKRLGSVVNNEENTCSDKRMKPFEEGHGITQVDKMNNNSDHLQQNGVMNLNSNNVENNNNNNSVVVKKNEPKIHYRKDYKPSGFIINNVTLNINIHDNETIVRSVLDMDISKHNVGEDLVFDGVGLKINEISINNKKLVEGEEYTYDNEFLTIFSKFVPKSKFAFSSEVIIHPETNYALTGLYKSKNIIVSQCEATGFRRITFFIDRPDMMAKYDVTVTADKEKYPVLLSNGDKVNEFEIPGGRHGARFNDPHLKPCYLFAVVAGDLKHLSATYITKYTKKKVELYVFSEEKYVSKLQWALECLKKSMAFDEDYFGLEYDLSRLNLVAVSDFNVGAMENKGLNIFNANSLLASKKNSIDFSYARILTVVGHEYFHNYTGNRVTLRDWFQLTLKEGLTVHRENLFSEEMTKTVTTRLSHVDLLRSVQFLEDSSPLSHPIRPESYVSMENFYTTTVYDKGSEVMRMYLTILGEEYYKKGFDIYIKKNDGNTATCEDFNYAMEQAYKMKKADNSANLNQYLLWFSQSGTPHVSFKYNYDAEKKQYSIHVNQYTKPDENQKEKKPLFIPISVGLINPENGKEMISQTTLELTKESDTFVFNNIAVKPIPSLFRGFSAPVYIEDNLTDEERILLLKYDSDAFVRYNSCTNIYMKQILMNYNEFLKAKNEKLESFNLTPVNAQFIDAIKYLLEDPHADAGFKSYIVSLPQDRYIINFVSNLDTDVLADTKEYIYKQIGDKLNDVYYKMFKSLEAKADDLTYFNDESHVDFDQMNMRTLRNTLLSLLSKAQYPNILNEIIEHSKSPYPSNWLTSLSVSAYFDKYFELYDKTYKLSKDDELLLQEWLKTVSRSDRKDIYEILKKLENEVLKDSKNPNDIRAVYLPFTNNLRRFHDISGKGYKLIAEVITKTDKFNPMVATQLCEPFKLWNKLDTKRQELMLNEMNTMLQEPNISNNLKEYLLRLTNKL

[4] = activation of miR-122 Renilla sensor silencing – cell-based, Huh7 psiCHECK-miR122, Renilla luciferase, cherry-picked, dose response (AID 651956); assay type: functional;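 further: huh7 hepatoma cells stably carrying a psiCHECK-2 miR-122 sensor plasmid; renilla luciferase signal reporting endogenous miR-122 activity after 48 h compound exposure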
[5] = general mammalian cell viability loss – inhibitor set, cherry-pick, set 2, cytotoxicity control for miR-122 modulator project, dose response (AID 720697); assay type: functional, cell-based
[6] = general mammalian cell viability loss – activator set, cherry-pick, cytotoxicity control for miR-122 modulator project, dose response (AID 720690); assay type: functional, cell-based;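 further: HEK293T human cells scored for general mammalian cytotoxicity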

Cytochrome P450 3A4, sequence (P08684 whole entry): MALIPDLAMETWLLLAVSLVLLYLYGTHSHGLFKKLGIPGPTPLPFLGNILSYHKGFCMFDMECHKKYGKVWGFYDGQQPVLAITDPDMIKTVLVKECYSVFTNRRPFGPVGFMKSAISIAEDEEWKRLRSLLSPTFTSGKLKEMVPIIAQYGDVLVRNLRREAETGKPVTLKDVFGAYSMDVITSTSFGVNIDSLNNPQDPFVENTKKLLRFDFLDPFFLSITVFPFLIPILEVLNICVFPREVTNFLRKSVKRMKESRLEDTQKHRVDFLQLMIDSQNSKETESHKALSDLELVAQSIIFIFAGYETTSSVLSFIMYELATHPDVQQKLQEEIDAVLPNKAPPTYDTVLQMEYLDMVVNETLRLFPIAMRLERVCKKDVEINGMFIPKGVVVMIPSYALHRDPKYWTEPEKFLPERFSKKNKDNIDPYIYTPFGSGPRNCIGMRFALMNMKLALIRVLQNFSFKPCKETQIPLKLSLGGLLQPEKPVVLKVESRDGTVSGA
Glyceraldehyde-3-phosphate dehydrogenase, sequence (P04406 whole entry): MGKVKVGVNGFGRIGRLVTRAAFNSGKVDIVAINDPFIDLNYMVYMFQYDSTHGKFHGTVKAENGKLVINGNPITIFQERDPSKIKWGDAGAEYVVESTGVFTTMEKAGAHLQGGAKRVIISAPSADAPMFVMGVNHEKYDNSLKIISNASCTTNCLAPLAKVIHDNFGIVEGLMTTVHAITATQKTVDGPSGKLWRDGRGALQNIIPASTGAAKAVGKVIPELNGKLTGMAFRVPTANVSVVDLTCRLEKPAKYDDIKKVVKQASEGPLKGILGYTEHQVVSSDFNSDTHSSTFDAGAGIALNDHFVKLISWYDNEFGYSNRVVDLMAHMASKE

SMILES: Cc1cc(NS(=O)(=O)c2ccc(NC(=O)COc3ccccc3[N+](=O)[O-])cc2)no1
- AC50 (Caspase-6): 10.5 µM (active)

SMILES: COc1ccc(C#Cc2ccc([C@H]3[C@H](CO)N4CCCCN(Cc5ccccc5F)C[C@@H]34)cc2)cc1
- AC50 [1]: 0.781 µM (active)
- AC50 [2]: 10.9 µM (active)

SMILES: Clc1ccc(C2[C@H]3CN(CC4CCCCC4)[C@H](c4ccccc4)C34CC2(c2ccccc2)C4)cn1 (stereo partly specified)
- AC50 (Cytochrome P450 3A4): 15.8 µM (inconclusive)

SMILES: CSc1nnc(-c2cc(Br)ccc2/N=C/c2c(C)nn(-c3ccccc3)c2O)c(O)n1
- IC50 (Leucine aminopeptidase): 24.8 µM (active)

SMILES: CC(C)c1nc(N(C)S(C)(=O)=O)nc(-c2ccc(F)cc2)c1/C=C/C(O)CC(O)CC(=O)O (stereo unspecified)
- AC50 (Cytochrome P450 3A4): 39.8 µM (inconclusive)

SMILES: CC(C)Cn1c(N)c(C(=O)COC(=O)c2cc(C(F)(F)F)nc3c(C(F)(F)F)cccc23)c(=O)n(C)c1=O
- AC50 (Cytochrome P450 3A4): 3.16 µM (inconclusive)

SMILES: N=C(CSc1nc(-c2ccccc2)c(-c2ccccc2)o1)NO
- IC50 (Leucine aminopeptidase): 7.64 µM (active)

SMILES: O=C(O)c1cc(S(=O)(=O)Nc2ccc3c[nH]nc3c2)ccc1Br
- AC50 (Caspase-6): 14.5 µM (active)

SMILES: O=C(O)CS(=O)(=O)c1cccc(C(=O)O)c1
- IC50 [3]: > 100 µM (not active)

SMILES: Cc1ccccc1Nc1nc(N)nc(COC(=O)c2ccc([N+](=O)[O-])o2)n1
- AC50 (Caspase-6): 47 µM (active)

SMILES: C[C@@H]1CN(C2=C(Cl)C(=O)N(c3ccnc(Cl)c3)C2=O)CCN1
- IC50 [3]: > 50 µM (inconclusive)

SMILES: Cc1ccc(N2C(=O)C(Cl)=C(N3CCN(c4ncccn4)CC3)C2=O)cc1
- IC50 [3]: > 50 µM (inconclusive)

SMILES: Cc1noc(NS(=O)(=O)c2ccc(NC(=O)CSc3n[nH]c4c5ccccc5nc-4n3)cc2)c1C
- IC50 (Leucine aminopeptidase): 2.57 µM (active)
- IC50 (Aminopeptidase N): 21.9 µM (active)

SMILES: OC(CN1CCNCC1)Cn1c2ccc(Br)cc2c2cc(Br)ccc21 (stereo unspecified)
- AC50 (Cytochrome P450 3A4): 31.6 µM (inconclusive)

SMILES: C[C@H]1CN([C@@H](C)CO)S(=O)(=O)c2ccc(C3=CCCCC3)cc2O[C@@H]1CN(C)C(=O)Cc1ccncc1
- AC50 [1]: 3.13 µM (active)
- AC50 [2]: > 39 µM (inactive)

SMILES: CC(=O)N1[C@H](C)C=C[C@]1(Cc1ccccc1)C(=O)NCCc1c[nH]c2ccccc12
- AC50 (Cytochrome P450 3A4): 1.58 µM (inconclusive)

SMILES: C=C1C([C@@]2(C)C(OC(C)=O)CC(=O)O[C@@](C)(COC(C)=O)C2CC(=O)OC)C(OC=O)C(OC(=O)C(O)C(C)CC)[C@]2(C)C(c3ccoc3)CC(=O)C12O (stereo partly specified)
- AC50 (Cytochrome P450 3A4): 10 µM (inconclusive)

SMILES: COc1ccc(NC(=O)N2CCCCN3[C@@H](CO)[C@H](c4ccc(C#CCC(C)C)cc4)[C@@H]3C2)cc1
- AC50 [4]: 3.18 µM (active)
- AC50 [5]: 11.7 µM (active)
- AC50 [6]: 11.6 µM (active)
- AC50 [1]: 0.491 µM (active)
- AC50 [2]: 8.52 µM (active)

SMILES: CCOC(=O)c1oc2c(O)c(O)ccc2c(=O)c1-c1nncn1-c1ccccc1
- IC50 (Leucine aminopeptidase): 6.58 µM (active)
